Test results from patent publication US8324173B2, “Peptides useful as dual caspase-2/-6 inhibitors and their biological applications” (Chiesi Farmaceutici S.p.A., priority 2004, dated 2012).
Peptide text beside a SMILES is read from it. * marks the point of attachment. code Z = not defined here; CH2F = FC*

Legend:
[1] = target: T1, human recombinant caspase-2 (Homo sapiens, UniProt P42575); assay: In vitro caspase-2 cleavage assay (Ac-VDVAD-AMC substrate); type: biochemical; parameters: key to Group (pattern of caspase-2 inhibition curve): group 1 referred to inhibitors that were relatively more active than VDVAD(SEQ ID NO:9)-based inhibitors against caspase-2 at lower doses, but with similar IC50 values; group 2 referred to VDVAD(SEQ ID NO:9)-based inhibitor with characteristic sigmoid dose-response; group 3 referred to pentapetidic-based inhibitors that were less active than VDVAD(SEQ ID NO:9)-based inhibitors against caspase-2 at lower doses and that exhibited higher IC50; conditions: for Group (pattern of caspase-2 inhibition curve) / IC50: Table 4; for IC50: 30 min pre-incubation, 2 h at 37° C.; for VDVAD-AMC cleavage by caspase-2: recombinant caspase-2, FIG. 16
T1 construct: purchased BIOMOL
T1 sequence (P42575 170-333 limits assumed): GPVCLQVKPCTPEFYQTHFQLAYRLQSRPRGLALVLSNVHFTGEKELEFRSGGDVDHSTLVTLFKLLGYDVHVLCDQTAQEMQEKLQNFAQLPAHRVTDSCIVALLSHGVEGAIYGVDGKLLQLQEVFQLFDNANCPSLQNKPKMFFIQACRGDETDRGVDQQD
T1 sequence (P42575 348-452 limits assumed): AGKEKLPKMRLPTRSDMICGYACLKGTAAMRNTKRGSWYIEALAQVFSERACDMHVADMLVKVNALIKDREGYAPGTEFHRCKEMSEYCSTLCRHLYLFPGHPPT
Description: Newly designed inhibitors (Ac-LDEAD(SEQ ID NO:7)-CHO, Ac-VDEAD(SEQ ID NO:1)-CHO . . . ) were compared to Ac-VDVAD(SEQ ID NO:9)-CHO in in vitro caspase-2 cleavage assay according to the following protocol (FIG. 8). Human recombinant caspases (25-50 U; QuantiZyme™ Assay System, BIOMOL, Plymouth, Pa., USA) were pre-incubated 30 min with inhibitors (0.005-2 μM) in final 100 μl final assay buffer (50 mM HEPES, pH 7.4, 100 mM NaCl, 0.1% CHAPS, 10 mM DTT, 1 mM EDTA, 10% glycerol) and then mixed with 200 μM of the fluorogenic caspase substrates (BIOMOL) Ac-VDVAD(SEQ ID NO:9)-AMC. An IC50 value corresponding to the concentration that could inhibit 50% of caspase activity was determined from the dose-response sigmoid curve. The cleavage of AMC-based substrates by human recombinant caspases 1-10 was measured after 2 h at 37° C. on a fluorescence microplate reader by monitoring emission at 510 nm upon excitation at 405 nm.

[2] = test system: global cerebral ischemia, hippocampus CA1 cell death; assay: Global cerebral ischemia by four-vessel occlusion (4VO) in young-adult rats; type: in vivo, rat; conditions: single i.c.v. 60 ng, 72 h post-ischemia
Description: Global cerebral ischemia was induced by four-vessel occlusion (4V0) according a Pulsinelli's derived method (Pulsinelli and Buchman, 1988) in young-adult rats (males Wistar aged of 10-12 weeks, 320 g+/−10 g; Janvier). The first day, head of anesthetised rats was positionned in stereotaxic ear bars and tilted down at approximatively 30° to the horizontal. After a midline incision at the level of cervical spine, both vertebral arteries were exposed under microscope and then coagulated by electocautery needle through the alar foramina at the level of first cervical vertebra. Both common carotides were then exposed 24 h later and clamped for 20-30 min (rats fell in the coma when electrocautherisation of both vertebral arteries have been well performed). Carotid arteries were then declamped to allow blood flow reperfusion. Vehicle and SEQ8 were administrated at the level of the left cerebral ventricule in the first fifth minutes of ischemia (carotides occlusion). Rats were let in their cage with waer et food ad libitum.
The selective loss of vulnerable cells and SEQ8's effects have been evaluated at 72 h. Rats were sacrificed and brain fixed by trans-cardiac perfusion with paraformaldehyde. Frontal brain slices (25 μm) were strained by Cresyl-Violet or co-stained by Hoechst 33342 and Fluorojade B to assess cell death in the hippocampus and in the cortex. […] Fluoro JadeB (green fluorescence) intake is possible only in cells which have permeable plasma membrane, thus more characteristic of dying cells. Hoechst 33342 (blue fluorescence) label nuclei all cells and allows to appreciate nuclear morphology changes during cell death. Cells are counted in three successive slices at such levels in the hippocampus (CA1) in the left brain hemisphere. […] Both Fluoro Jade B and Hoechst stained slices were observed under a Leica DMIRB inverted fluorescence microscope equipped with ×40 objective and LEICA IM1000/Qfluorobase software (BP 340-80 excitation filter combined with LP 425 emission filter for Hoechst; BP 480/40 excitation filter combined with BP 515-560 emission filter for Fluoro Jade B).

[3] = test system: neonatal ischemic brain injury; assay: Perinatal transient unilateral focal ischemia model in 7 day-old rat pups; type: in vivo; conditions: for reduction of infarct volume: 48 h
Description: Newborn Wistar rats (dam plus 9 pups per litter) were obtained from Janvier (Le Genest-St-Isle, France) when the pups were 3-4 days of age. The pups were housed with their dam under a 12:12 h light-dark cycle with food and water freely available. Animal experimentation was conducted according to the French and European Community guidelines for the care and use of experimental animals. Rat pups were anesthetized with an intraperitoneal injection of chloral hydrate (350 mg/kg). Ischemia was performed in 7 day-old rats (17-21 g), as previously described (Renolleau et al., 1998). Anesthetized rats were positioned on their back and a median incision was made in the neck to expose the left common carotid artery. Rats were then placed on the right side and an oblique skin incision was made between the ear and the eye. After excision of the temporal muscle, the cranial bone was removed from the frontal suture to a level below the zygomatic arch. […] After this procedure, a clip was placed to occlude the left common carotid artery. Rats were then placed in an incubator to avoid hypothermia. After 50 min, the clip was removed. Carotid blood flow restoration was verified with the aid of a microscope. Neck and cranial skin incisions were then closed. During the surgical procedure, body temperature was maintained at 37-38° C. Pups were transferred in an incubator (32° C.) until recovery then after to their dams.
Compound was administered intraperitoneally or intraveinously at 1 h after ischemia (corresponding to the reperfusion). Control animals received an equivalent volume of vehicle required to solubilize the pentapeptidic caspase inhibitor. Rats were killed 48 hours after reperfusion and brains were removed. The infarct lesion (pale zone) was visually scored by an observer blinded to the treatment of animals. Brains without a clear ischemic pale zone were observed under a magnifying glass.
Sections from anterior striatum to posterior hippocampus (corresponding to plates 9 to 27 in Paxinos' rat brain atlas) were selected, taken at equally spaced 0.5-mm intervals. The lesion areas were measured on cresyl violet-stained sections using an image analyzer, and the distances between respective coronal sections were used to calculate the infarct volume.

CC(=O)N[C@H](C(=O)N[C@@H](CC(=O)O)C(=O)N[C@@H](CCC(=O)O)C(=O)N[C@@H](CO)C(=O)N[C@H](C=O)CC(=O)O)C(C)C [Compound 7, Ac-VDESD(SEQ ID NO:4)-cho] (Ac-VDESD-aldehyde)
Group (pattern of caspase-2 inhibition curve) [1]: 3

CC(=O)N[C@@H](CC(C)C)C(=O)N[C@@H](CC(=O)O)C(=O)N[C@@H](CCC(=O)O)C(=O)N[C@@H](CO)C(=O)N[C@H](C=O)CC(=O)O [Compound 1, Ac-LDESD-cho, reference compound] (Ac-LDESD-aldehyde)
Group (pattern of caspase-2 inhibition curve) [1]: 2/3
IC50 [1]: 300 ± 20 nM

Z-VDVAD(SEQ ID NO:9)-FMK ({code Z}-VDVAD-CH2F; reading uncertain) [reference compound]
VDVAD-AMC cleavage by caspase-2 [1]: blocked

CC(=O)N[C@@H](CC(C)C)C(=O)N[C@@H](CC(=O)O)C(=O)N[C@@H](CCC(=O)O)C(=O)N[C@@H](CCCCN)C(=O)N[C@H](C=O)CC(=O)O [Compound 27, Ac-LDEKD(SEQ ID NO:5)-cho] (Ac-LDEKD-aldehyde)
Group (pattern of caspase-2 inhibition curve) [1]: 3
IC50 [1]: 300 ± 5 nM

CC(=O)N[C@@H](CC(C)C)C(=O)N[C@@H](CC(=O)O)C(=O)N[C@@H](CCC(=O)O)C(=O)NCC(=O)N[C@H](C=O)CC(=O)O [Compound 26, Ac-LDEGD(SEQ ID NO:2)-cho] (Ac-LDEGD-aldehyde)
Group (pattern of caspase-2 inhibition curve) [1]: 3

CC(=O)N[C@@H](Cc1ccccc1)C(=O)N[C@@H](CC(=O)O)C(=O)N[C@@H](CCC(=O)O)C(=O)N[C@@H](CO)C(=O)N[C@H](C=O)CC(=O)O [Compound 3, Ac-FDESD(SEQ ID NO:6)-cho] (Ac-FDESD-aldehyde)
Group (pattern of caspase-2 inhibition curve) [1]: 3

z-LEHD-fmk ({code Z}-LEHD-CH2F; reading uncertain; also: printed as z-LEHD-fmk) [reference compound]
VDVAD-AMC cleavage by caspase-2 [1]: not

2-Quinolinylcarbonyl-L-Valinyl-L-Aspartyl (methyl ester)-L-Vanilyl-L-Alaninyl-L-Aspartyl (methyl ester) 2,6-difluorophenyl ester [SEQ8]
Cresyl-violet staining intensity [2]: partially restored
abnormal nuclei in CA1 [2]: less abnormal nuclei
cells incorporating Fluorojade B in CA1 [2]: 10-20%
VDVAD-AMC cleavage by caspase-2 [1]: blocked
animals with partially or very marked reduced infarct ([3]; 1 mg/kg i.v. (FIG. 18) 1 h post-ischemia): ~50%
animals with partially or very marked reduced infarct ([3]; 0.1 or 1 mg/kg i.p. 1 h post-ischemia): more than 50%
reduction of infarct volume ([3]; single dose 1 mg/kg i.v. (FIG. 18) 1 h post-ischemia): at least 30%
reduction of infarct volume ([3]; single dose 0.1 or 1 mg/kg i.p. 1 h post-ischemia): 44-53%
